System: skin
Experiment: Test Example 1: transepidermal water loss (TEWL) of skin pretreated with sodium lauryl sulfate, Tewameter
Assay type: in vivo
Conditions: conclusion drawn from Table 3
Experimental: Vesicle dispersion liquid 1, Vesicle dispersion liquid 2, Comparative Example 4, Comparative Example 5, and Comparative Example 6 were each used as a sample. The skin was previously applied and blocked with 1% sodium lauryl sulfate aqueous solution for 24 hours to enhance transepidermal water loss (TEWL), and was applied and blocked with the sample for 6 hours, and 30 minutes after removing a bandage, TEWL was determined using Tewameter (manufactured by Integral Corporation). It should be noted that water was applied as a control. […] This is inferably because the dermis-reaching property of Palmaria extract 1, which is an active ingredient, has been enhanced owing to the vesicle.

SMILES: CCCCCCCCCCCC(=O)N[C@@H](CCC(=O)NCCCC[C@H](NC(=O)CC[C@H](NC(=O)CCCCCCCCCCC)C(=O)O)C(=O)O)C(=O)O [Pellicer L-30, α,ε-bis (γ-N-lauroylglutamyl)lysine]
- TEWL-suppressing effect (in words): had a function of suppressing TEWL
